≈ marks a conversion by molar mass, not a printed value. Where “and” joins values, the source holds several entries; their conditions need not be identical. Equal entries are not always repeated.
Columns and labels:
[1] = in vitro; settings: human
[2] = tested on: HK cells, transporter 31; assay: HCHT imaging: inhibition of cytosolic delivery of ETP transporter 31; assay type: cell-based, Human; settings: co-incubation (C), inhibitor 1 h; for IC50 / IC15: Homo sapiens, 1 h; for IC50: read-out: IC50 (concentration needed to reach 50% inhibition), transporter 31 10 μM; for IC15: read-out: MIC (concentration needed to reach 15% inhibition), transporter 31 10 μM; for MIC (concentration needed to reach 15% inhibition): transporter 31 10 μM
Experimental: (§1) Uptake inhibition was measured by the automated HCHT imaging used already to elaborate on cytosolic delivery. For inhibitor screening, HK cells in multiwell plates were incubated with increasing concentrations of inhibitors, followed by fluorescent transporters 28, 31, and 32 at a constant concentration. […] If inhibitors are removed before the addition of transporters 28, 31, and 32, the method is referred to as “pre-incubation”. This is of interest to minimize exchange between the transporter and the inhibitor but is often problematic because dynamic covalent exchange between the inhibitor and cellular target can also be reversed and thus lost. The complementary “co-incubation” operates without inhibitor removal before the addition of transporters 28, 31, and 32.
(§2) 536/40 nm emission filter, and red with 531/40 nm excitation filter and 593/40 nm emission […]
(§3) 4.3. HCHT Inhibitor Screening
(§4) Pre-Incubation Method. As in ref. S1. HeLa Kyoto cells were seeded at 8 ×10^4 cells/mL in FluoroBrite DMEM + 10% FBS on μ-Plate 96-well Black ibiTreat sterile and incubated at 37 °C with 5% CO 2 for 24 h. Then, the medium was removed and cells were washed with PBS ([…]), fresh FluoroBrite DMEM medium (4 × 150 μL/well) was added into the cells using a plate washer (Biotek EL406®), keeping a final volume of 135 μL/well. Different concentrations of the inhibitors were prepared by serial dilution with 10% final concentration DMSO (10× in PBS). The solution of compounds 4 and 33 was prepared final DMSO concentration of 10% in each dilution (10× in PBS). These inhibitor solutions (10× final concentration), transporter 28 (10× in DMEM), transporters 31 and 32 (10× in PBS) a solution of HOE (100 μg/mL) and PI (10 μg/mL) in PBS were prepared freshly in a 96-well V-bottom plate before adding to the cells. The inhibitor solutions from the V-bottom plate were added to the cells (15 μL/well) in a final volume of 150 μL/well using an electronic multichannel pipette and cells were incubated for 1 h at 37 °C with 5% CO 2. After this incubation, cells were washed again with PBS and DMEM using the plate washer (in the way mentioned above), and transporter 28 , 31 or 32 from the V-bottom plate was added (15 μL/well) to the cells in a final volume of 150 μL/well. A final concentration of each transporter 28 , 31 and 32 was 5 μM, 10 μM and 0.5 μM, respectively, except for the control wells, where only PBS was added (15 μL/well). Cells treated with transporter 28 or 31 were incubated for 30 min, and cells treated with 32 were incubated for 2 h at 37 °C with 5% CO 2. After that, the cells were washed with PBS and DMEM using the plate washer, and the solution of Hoechst 33342 and PI from the V-bottom plate was added (15 μL/well) to the cells in a final volume of 150 μL/well. After 15 min of incubation at 37 °C with 5% CO 2, the cells were washed and kept in clean FluoroBrite
(§5) DMEM. For live cell imaging, samples were kept at 37 °C with 5% CO 2 during the microscope imaging. The distribution of fluorescence stained cells was analyzed without fixing using an […]

[3] = Dynamic covalent ring opening with thiol 10, 1H NMR kinetics; assay type: physicochemical
Experimental: The dynamic covalent opening of CTO 3 with thiols yields product 9 with a disulfide and a sulfinate (Figure 3B). Consistent with short chalcogen bonds found in silico, the opening of CTO 3 was instantaneous on an NMR timescale with most thiols. To decelerate ring opening, bulky thiols were considered in combination with lowered pH to deactivate the nucleophile. With N-Ac-D-penicillamine 10, the opening of 5 mM CTO 3 in phosphate buffer/DMSO-d6 9:1 was still immediate at pD 6.7 but became detectable in ^1H NMR spectroscopy kinetics under more acidic conditions. The ring-opening rate constants k^O were estimated by fitting the initial velocities to second-order kinetics. Only lower bound rates were approximated from the earliest determined substrate conversions when reactions were still too fast despite the unfavorable conditions. At pD 5.4, dynamic covalent ring opening of CTO 3 with equimolar tertiary thiol 10 occurred with k^O > 0.49 M^–1 s^–1 and equilibrated at K = 6.0 × 10^3 M^–1 (Table 1, entry 1, Figures S4 and S5). At pD 2.7, further deceleration to k^O = 0.10 M^–1 s^–1 shifted the equilibrium to K = 500 M^–1 (Table 1, entry 2, Figures S6 and S7). […] At equilibrium, the concentration of thiol 10 further decreased slowly due to oxidation into the homodimer (Figure 3C, diamonds).
Equilibrium constants for reactions with two reactants A and B and a product C are […]
3.1.1. Dynamic Covalent Ring Opening with Thiols
General procedure A (at 5 mM): To a solution of deuterated sodium phosphate (200 mM in D 2O, pD 2.7 or 5.4, 180 mM final concentration), a stock solution of substrate (0.10 M in DMSO-d6, 5.0 mM final concentration) was added and stirred. Then a stock solution of 10 (0.10 M in DMSO- d6, 5.0 mM final concentration) was added and vigorously stirred at room temperature. The solution was transferred immediately to an NMR tube and NMR data were recorded repeatedly. The concentration of the substrate or thiol at each time plot was calculated by comparing the integrals of the peaks indicated with arrows in the figures, and plotted. The data points were fitted to obtain k1 with the Equation (S6) or (S7) using Graphpad Prism.
General procedure B (at 2 mM): To a solution of deuterated sodium phosphate (200 mM in D 2O, pD 2.7 or 5.4, 180 mM final concentration), DMSO- d6 (10% DMSO- d6 in the reaction mixture) and a stock solution of substrate (0.10 M in DMSO- d6, 2.0 mM final concentration) were added and stirred. Then a stock solution of 10 (0.10 M in DMSO- d6, 2.0 mM final concentration) was added and vigorously stirred at room temperature. The solution was transferred immediately to an NMR tube and NMR data were recorded repeatedly. The concentration of the substrate or thiol at each time plot was calculated by comparing the integrals of the peaks indicated with arrows in the figures, and plotted. The data points were fitted to obtain k1 with the Equation (S6) or (S7) using Graphpad Prism.
General procedure C (for thiosulfinates): To a solution of deuterated sodium phosphate (200 mM in D 2O, pD 5.4, 170 mM final concentration), a stock solution of substrate (0.10 M in DMSO- d6, 5.0 mM final concentration) was added and stirred. Then a stock solution of 10 (0.10 M in DMSO- d6, 10 mM final concentration) was added and vigorously stirred at room […]
data points were fitted to obtain k1 with the Equation (S14) or (S16) using Graphpad Prism. […]
3.1.2. Dependence of Ring Opening on Proticity
A mixture of deuterated phosphoric acid and NaOD (30% in D 2O), which gave pD 2.7 in D2O, was used as buffer in all solvent mixtures. To a solution of deuterated sodium phosphate (20 mM final concentration) in a mixture of D 2O and DMSO- d6 (540 μL, final D 2O content: […]
concentration) was added and stirred. Then a stock solution of 10 (0.10 M in DMSO- d6, 5.0 mM final concentration) was added and vigorously stirred at room temperature. The solution was transferred immediately to an NMR tube and 1H NMR data were recorded repeatedly. […]

[4] = tested on: HeLa Kyoto cells; assay: Relative viability (HOE/PI) in HCHT screening
Experimental: One advantage of HCHT imaging of cellular uptake compared to flow cytometry[38],[42],[43] is that it simultaneously gives information on toxicity and intracellular localization. […] Information on the intracellular localization of reporters can be quantified through segmentation of cellular compartments stained with specific markers.[52]
as §1
Relative cell viability ( RV) for each condition in the presence of inhibitors was calculated […]
of the relative cell viability ( RVrel) to the concentration of inhibitors ( cinhibitor ) was plotted and fitted with Equation (S19) to retrieve the concentration causing 50% cell growth inhibition (RV50) value and the Hill coefficient ( n).

[5] = tested on: HK cells, transporter 28; assay: HCHT imaging: inhibition of cytosolic delivery of CTO transporter 28; assay type: cell-based, Human; settings: pre-incubation (P), inhibitor 1 h
Experimental: as §1, §2, §3, §4, §5

[6] = with transporter 31, co-incubation (C)

With `CC(C)(C)[Si](C)(C)O[C@@H]1CS(=O)(=O)SC[C@@H]1O` [Compound 6] the viability at 7 h, 5 µM [1] was 105 ± 7%, the IC50 [2] was 5 ± 1 µM and the IC15 [2] was less than 1 µM.
For `CSS(C)(=O)=O` [Compound 14, reference compound], the “k^O, rate constant of ring opening (or equivalent for acyclic controls)” value ([3]; equimolar 10, rt, pD 2.7, 90% D2O, Na+ phosphate 180 mM, substrate 2 mM) was 0.52 M^–1 s^–1 and the “krel^O, rate constant of ring opening relative to 3” value ([3]; pD 2.7, 90% D2O, 2 mM) was 5.2.
In the case of `O=S1(=O)C[C@H](O)[C@@H](O)CS1` [Compound 15], the “RV50 (concentration needed to lower relative viability by 50%)” value [4, 6] is reported as greater than 500 µM, the IC50 [2] is reported as 22 µM and the IC15 [2] is reported as 1.5 µM. The “k^O, rate constant of ring opening” value ([3]; equimolar 10, rt, pD 2.7, 90% D2O/DMSO-d6, Na+ phosphate 180 mM, substrate 5 mM) was greater than 0.56 M^–1 s^–1, the “krel^O, rate constant of ring opening relative to 3” value ([3]; pD 2.7, 90% D2O, 5 mM) was greater than 5.6 and the “ring opening faster than 3 (fold)” value ([3]; with thiol 10, pD 2.7) was 5 ×.
In the case of `O=C(O)c1cc(SSc2ccc([N+](=O)[O-])c(C(=O)O)c2)ccc1[N+](=O)[O-]` [Compound 16, 5,5’-Dithiobis(2-nitrobenzoic acid), reference compound], the viability at 7 h, 5 µM [1] is reported as 89%, the “k^O, rate constant of ring opening (or equivalent for acyclic controls)” value ([3]; equimolar 10, rt, pD 5.4, 90% D2O/DMSO-d6, Na+ phosphate 180 mM, substrate 5 mM) is reported as 0.11 M^–1 s^–1 and the “krel^O, rate constant of ring opening relative to 3” value ([3]; pD 5.4, 90% D2O, 5 mM) is reported as less than 0.22. For the same compound, the “ring opening/exchange slower than CTO 3 (fold)” value ([3]; with thiol 10, pD 5.4) was greater than 5 ×.
In the case of `CCN1C(=O)C2SSC1C(=O)N2CC(=O)NCCNC(=S)Nc1ccc(-c2c3ccc(=O)cc-3oc3cc(O)ccc23)c(C(=O)O)c1` (stereo not shown) [Compound 31, reference compound], the “toxicity of transporters (in words)” value ([4]; conditions of HCHT screening (28 5 μM, 31 10 μM, 32 0.5 μM)) is reported as “not toxic”.
In the case of `CC(=O)O[C@H]1CSS(=O)(=O)C[C@H]1O` [Compound 36], the “RV50 (concentration needed to lower relative viability by 50%)” value [4, 6] is reported as greater than 50 µM, the viability at 7 h, 50 µM [1] is reported as 97% and the IC50 [2] is reported as 27 µM. The IC15 [2] was 2.1 µM and the “MIC (concentration needed to reach 15% inhibition)” value [2] was 2 µM.
For `O=S(O)CC(O)C(O)CSSCC(O)C(O)CS(=O)O` (stereo not shown) [Compound 37], the “RV50 (concentration needed to lower relative viability by 50%)” value [4, 6] was greater than 50 µM, the viability at 7 h, 50 µM [1] was 97% and the IC50 [2] was 60 ± 20 µM. For the same compound, the IC15 [2] was 6.8 µM and the “MIC (concentration needed to reach 15% inhibition)” value [2] was 7 µM.
With `CC(C)(C)[Si](C)(C)O[C@@H]1CS(=O)(=O)SC[C@@H]1OC(=O)NCC[N+](C)(C)C` [Compound 38] the viability at 7 h, 50 µM [1] was 37%, the IC50 [2] was 47 µM and the IC15 [2] was 23 µM.
For `NCCNC(=O)O[C@H]1CSS(=O)(=O)C[C@H]1O` [Compound 39], the “RV50 (concentration needed to lower relative viability by 50%)” value [4, 6] was greater than 50 µM, the viability at 7 h, 50 µM [1] was 86% and the IC50 [2] was greater than 50 µM. The IC15 [2] was 14 µM.
For `O=S(O)CC(O)C(O)CSSCCSSCC(O)C(O)CS(=O)O` (stereo not shown) [Compound 40], the “RV50 (concentration needed to lower relative viability by 50%)” value [4, 6] was greater than 50 µM, the viability at 7 h, 50 µM [1] was 96% and the IC50 [2] was 50 µM. For the same compound, the IC15 [2] was 7.8 µM and the “MIC (concentration needed to reach 15% inhibition)” value [2] was 8 µM.
For `CCCNC(=O)O[C@H]1CSS(=O)(=O)C[C@H]1O[Si](C)(C)C(C)(C)C` [Compound 43], the IC15 ([5]; Homo sapiens, 1 h, read-out: MIC (concentration needed to reach 15% inhibition), transporter 28 5 μM) was 4.1 µM, the IC50 ([5]; Homo sapiens, read-out: IC50 (concentration needed to reach 50% inhibition), transporter 28 5 μM) was greater than 50 µM and the “MIC (concentration needed to reach 15% inhibition)” value ([5]; transporter 28 5 μM) was 4 µM (≈ 1.53 µg/mL). The viability at 7 h, 10 µM [1] was 87%.
With `C#CCNC(=O)CC[C@H](NC(=O)COCCNC(=O)O[C@H]1CSS(=O)(=O)C[C@H]1O[Si](C)(C)C(C)(C)C)C(=O)NCCOCCNC(=O)O[C@H]1CSS(=O)(=O)C[C@H]1O[Si](C)(C)C(C)(C)C` [Compound 44] the “RV50 (concentration needed to lower relative viability by 50%)” value ([4]; with transporter 28, pre-incubation (P)) was 4.1 ± 0.3 µM and 4 µM and the viability at 7 h, 10 µM [1] was 98%.
With `O=c1c2ccccc2[se]n1-c1ccccc1` [Compound 46, Ebselen, reference compound] the “RV50 (concentration needed to lower relative viability by 50%)” value [4, 6] was greater than 100 µM, the viability at 7 h, 50 µM [1] was 40% and the IC50 [2] was 49 µM. The IC15 [2] was less than 2 µM and the “MIC (concentration needed to reach 15% inhibition)” value [2] was less than 2 µM.
